Consider 1 compound from US20030105300A1, “Tumor targeted photodiagnostic-phototherapeutic agents” (MALLINCKRODT INC., priority 2001, published 2003).

Molecules are shown by their SMILES.

Common to all, as to set-up: species or system male Lewis rats
The test system of assay [1] is Dunning R3327-H (prostate) tumor. In words: In vivo fluorescence imaging of tumor-bearing rats with indocyanine green (Dunning R3327-H). The settings on record: left flank, 0.5 ml of 0.42 mg/ml ICG in saline, tail vein, images at 2 and 30 minutes. An excerpt:
(§1) A non-invasive in vivo fluorescence imaging apparatus was employed to assess the efficacy of indocyanine green (ICG) in three different rat tumor cell lines of the inventive contrast agents developed for tumor detection in animal models. A LaserMax Inc. laser diode of nominal wavelength 780 nm and nominal power of 40 mW was used. The detector was a Princeton Instruments model RTE/CCD-1317-K/2 CCD camera with a Rodenstock 10 mm F2 lens (stock #542.032.002.20) attached. An 830 nm […] (CVI Laser Corp., part #F10-830-4-2) was mounted in front of the CCD input lens, such that only emitted fluorescent light from the contrast agent was imaged.
(§2) Three tumor cell lines, DSL 6/A (pancreatic), Dunning R3327-H (prostate), and CA20948 (pancreatic), which are rich in somatostatin (SST-2) receptors were induced into male Lewis rats by solid implant technique in the left flank area (Achilefu et al., Invest. Radiology, 2000, pp. 479-485). Palpable masses were detected nine days post implant.

The test system of assay [2] is CA20948 (pancreatic) tumor. In words: In vivo fluorescence imaging of tumor-bearing rats with indocyanine green (CA20948).
Excerpt: as §1, §2

For assay [3], the system named is DSL 6/A (pancreatic) tumor. In words: In vivo fluorescence imaging of tumor-bearing rats with indocyanine green (DSL 6/A). The conditions noted are these: DSL 6/A tumor, left flank; 0.5 ml of 0.42 mg/ml ICG in saline, tail vein; images at 2 and 30 minutes.
Excerpt: as §1, §2

As for `CC1(C)C(/C=C/C=C/C=C/C=C2\N(CCCCS(=O)(=O)O)c3ccc4ccccc4c3C2(C)C)=[N+](CCCCS(=O)(=O)[O-])c2ccc3ccccc3c21` [ICG, indocyanine green], the “perfusion of the agent into the tumor (fluorescence images)” value in assay [1] was “slow perfusion of the agent into the tumor over time”; in assay [2] (left flank, 0.5 ml of 0.42 mg/ml ICG in saline, tail vein, images at 2 and 30 minutes) it was “only a slight and transient perfusion that was cleared after only 30 minutes post injection”; in assay [3] it was “slow perfusion of the agent into the tumor over time”. Moreover, in assay [2] (compared to the other two lines), the “non-specific localization into the tumor line” value is “no non-specific localization”.
